Assay [1] has as its target T1, TYK2 (Homo sapiens, UniProt P29597). As to the kind of experiment: HEK-Blue IL-23 reporter assay (SEAP) for TYK2 pseudokinase inhibition. Format: cell-based. Set-up: HEK-Blue™ IL-23 and IFNα/β cells with a stably-integrated cytokine receptor and STAT3 or STAT1; host or cells: HEK-Blue IL-23 / HEK-Blue IFNα/β cells (HEK293 background). Conditions: HEK-Blue IL-23 cells, 10 ng/mL human recombinant IL-23, SEAP reporter; read-out: IL23 IC50. The method in brief:
(§1)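 HEK-Blue cells carrying cytokine receptor and STAT3 or STAT1 SEAP reporter, pretreated 60 min with compound, then stimulated with 10 ng/mL IL-23 (22–24 h) or 1 ng/mL IFNα (16–18 h). SEAP read with QUANTI-Blue; IC50 by non-linear regression versus no-inhibitor and unstimulated controls.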

A further assay concerns IFN-γ. As to the kind of experiment: Selectivity assay (SEAP) IFN-γ reporter cells. Format: cell-based. Conditions: Homo sapiens, IFN-γ reporter cells on HEK293 background, read-out: Selectivity assays (SEAP) nM or E-Max % IFN-γ.
Another assay deals with IL-2. Briefly: Selectivity assay (SEAP) IL-2 reporter cells. The format is cell-based. Conditions: Homo sapiens, IL-2 reporter cells on HEK293 background, read-out: Selectivity assays (SEAP) nM or E-Max % IL-2.
For assay [2], the target named is T1, TYK2. As to the kind of experiment: HEK-Blue IFNα/β reporter assay (SEAP) for TYK2 pseudokinase inhibition. Format: cell-based. Conditions: HEK-Blue IFNα/β cells, 1 ng/mL human recombinant IFNα. The essentials:
as §1

The next assay deals with T2, JAK3-JH1 (Homo sapiens, UniProt P52333).
T2 construct: recombinant purified His or GST-tagged catalytic domain for each enzyme; purchased Carna biosciences 08-046
T2 sequence (P52333 822-1111 limits assumed): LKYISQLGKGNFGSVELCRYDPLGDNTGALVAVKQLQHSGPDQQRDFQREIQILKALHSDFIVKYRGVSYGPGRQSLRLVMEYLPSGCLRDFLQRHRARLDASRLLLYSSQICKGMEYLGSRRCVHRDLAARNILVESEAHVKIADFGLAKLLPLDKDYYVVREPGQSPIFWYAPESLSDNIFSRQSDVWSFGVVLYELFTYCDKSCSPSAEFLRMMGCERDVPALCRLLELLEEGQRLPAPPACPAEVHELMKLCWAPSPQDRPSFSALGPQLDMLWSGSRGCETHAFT
As to the kind of experiment: HTRF-based selectivity assay, JAK3 catalytic domain. Format: biochemical. Conditions: kinase domain (JH1), ATP 2.12 μM. As for the experimental part: (§2) The ability of compounds to inhibit the activity of JAK1, JAK2, JAK3 and TYK2 is measured using a recombinant purified His or GST-tagged catalytic domain for each enzyme (JAK1, JAK2 and TYK2 are generated in-house; JAK3 was purchased from Carna biosciences, Cat #08-046) in an HTRF format biochemical assay. The reactions employs a commercial peptide substrate from Cisbio (Cat #62TK0PEC). The basic assay protocol is as follows: first, 2.5 µL of diluted compounds (4×) in DMSO are dispensed into a 384-well Optiplate. Next, 2.5 μL of enzyme (final concentrations for enzymes are: TYK2-700 ng/mL, JAK1-80.6 ng/mL, JAK2-2.1 ng/mL and JAK3-171.8 ng/mL) is added and incubated at RT for 5-20 min. Finally, 5 μl of mixture of 2×ATP [Final concentration 20 μM for TYK2, 21.43 μM for JAK1, 14.7 μM for JAK2 and 2.12 μM for JAK3]+2× Substrate [Final concentration 217 nM for TYK2, 454.7 nM for JAK1, 200 nM for JAK2 and 257.4 nM for JAK3] is added to 384 well Optiplate. Composition of Kinase assay buffer used in the assay is as follows: HEPES 50 mM, EGTA 1 mM, MgCl2 10 mM, DTT2 mM, Tween-20 0.010 and water. Then the plates are shaken and then incubated at 26.5° C. for 60 min. At the end of the incubation, 10 μL of mixture of 2× detection mix [(EU3+Cryptate (1×)+Streptavidin-XL665 (final concentration: 62.5 nM) (HTRF KinEASE-TK kit Cat #62TK0PEC)] is added to the assay plate, shaken and incubated at 26.5° C. for 60 min. Plates are then read on a Perkin Elmer Envision for HTRF signal (665 nm reading/615 nm reading). After normalization to untreated controls, the percent inhibition of the HTRF signal at each compound concentration is calculated. The plot of percent inhibition versus the log of compound concentration is fit with a 4-parameter dose response equation to calculate IC50 values.

In a further assay the test system is IFN-γ-pSTAT1. Briefly: STAT phosphorylation assay IFN-γ-pSTAT1. The format is cell-based. Conditions: Homo sapiens, 0.25 h; IFN-γ (50 ng/ml) 15 min, phospho-STAT1 Western blot normalized to GAPDH; read-out: Selectivity assays (STATs) % Inhibition IFN-γ-pSTAT1. As for the experimental part: (§3) 0.3 to 0.5×10^6 Reporter cells (IL-23, IL-2, IFNα or IFNγ on HEK293 background purchased from InvivoGen) were seeded per well in 0.8 mL of DMVEM cell medium supplemented with 100 U/ml-100 μg/ml Pen-Strep and 10% FBS in 12 or 6-well plates and incubated overnight at 370 C, 5% CO2, 95% humidity. 0.1 mL test compounds serially diluted in DMSO and further diluted (10×) in intermediate plate containing cell treatment medium were prepared and added to the wells. The plates were incubated at 37° C. for 1 hr. Control wells contained 1′% DMSO prepared in cell medium. Post incubation, respective reporter cells were stimulated with 0.1 mL of either IL-23 (50 ng/ml; Miltenyl Biotech, cat #130-095-758) for 45 min or IL-2 (20 ng/ml) (Miltenyl Biotech, cat #130-097-742) for 15 min or IFNα/β (10 ng/ml) (Invivogen, cat #rcyc-hifna2b) for 15 min or IFN-γ (50 ng/ml) (Invivogen, cat #rcyec-hifng) for 15 min. Post stimulation cells were washed with DPBS once and lysed with 100 μL of RIPA buffer and placed on ice for 5 min. The lysates were then transferred to 1.5 mL Eppendorf tubes and centrifuged for 5 minutes at 10000 rpm at 4° C. and the supernatants either stored at −80° C. or used for protein estimation.
Samples were diluted 5× in cell lysis buffer and total protein concentration was determined in 96-well using Bradford Protein Assay following manufacturer's instructions. Western blot assay was performed using Protein Simple Wes Master Kit (SM-W004/DM-001) and device, following manufacturer's instructions. 1 to 2 mg/mL of total proteins were loaded per sample in 4 μL volume; phospho-STAT1, 3 or 5 antibodies (1:25) and GAPDH antibodies were diluted as indicated.
(§4) Western blot results were analysed using Compass 2.7.1 software and phospho-STAT quantity (AUC values) was normalized to GAPDH quantity (AUC values) for each sample.

The next assay has as its target T3, JAK1-JH1 (Homo sapiens, UniProt P23458).
T3 construct: recombinant purified His or GST-tagged catalytic domain for each enzyme; made in house
Briefly: HTRF-based selectivity assay, JAK1 catalytic domain. Conditions: kinase domain (JH1), ATP 21.43 μM. The format is biochemical. As for the experimental part: as §2
Background: TR-FRET usually uses a lanthanide donor and a delayed reading to cut background.

For another assay, the target named is T4, TYK2-JH1 (Homo sapiens, UniProt P29597).
T4 construct: recombinant purified His or GST-tagged catalytic domain for each enzyme; made in house
T4 sequence (P29597 897-1176 limits assumed): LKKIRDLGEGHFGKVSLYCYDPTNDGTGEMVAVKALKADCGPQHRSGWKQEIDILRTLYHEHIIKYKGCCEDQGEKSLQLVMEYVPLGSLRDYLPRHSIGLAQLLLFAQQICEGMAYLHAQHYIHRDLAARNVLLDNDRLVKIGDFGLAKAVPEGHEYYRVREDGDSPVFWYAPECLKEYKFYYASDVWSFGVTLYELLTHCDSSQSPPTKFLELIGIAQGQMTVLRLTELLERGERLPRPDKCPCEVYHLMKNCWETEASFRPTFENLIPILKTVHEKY
Briefly: HTRF-based selectivity assay, TYK2 catalytic domain. Conditions: kinase domain (JH1), ATP 20 μM. Format: biochemical. As for the experimental part:
as §2

The target of another assay is T5, JAK2-JH1 (Homo sapiens, UniProt O60674).
T5 construct: recombinant purified His or GST-tagged catalytic domain for each enzyme; made in house
T5 sequence (O60674 849-1124 limits assumed): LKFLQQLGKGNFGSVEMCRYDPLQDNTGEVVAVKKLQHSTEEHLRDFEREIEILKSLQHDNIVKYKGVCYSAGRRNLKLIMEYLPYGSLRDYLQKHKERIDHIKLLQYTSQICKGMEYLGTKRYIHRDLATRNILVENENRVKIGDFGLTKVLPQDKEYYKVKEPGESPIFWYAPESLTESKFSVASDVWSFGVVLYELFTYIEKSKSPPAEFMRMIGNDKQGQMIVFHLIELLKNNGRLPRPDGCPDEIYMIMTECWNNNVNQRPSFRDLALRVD
As to the kind of experiment: HTRF-based selectivity assay, JAK2 catalytic domain. Format: biochemical. Conditions: kinase domain (JH1), ATP 14.7 μM. As for the experimental part: as §2

A further assay deals with IL-2-pSTAT5. As to the kind of experiment: STAT phosphorylation assay IL-2-pSTAT5. Format: cell-based. Conditions: Homo sapiens, 0.25 h; IL-2 (20 ng/ml) 15 min, phospho-STAT5 Western blot normalized to GAPDH; read-out: Selectivity assays (STATs) % Inhibition IL-2-pSTAT5. The method, then: as §3, with “The lysates were then transferred to 1.5 mL Eppendorf tubes and centrifuged for 5 minutes at 10000 rpm at 4° C. and the supernatants either stored at −80° C. or used for protein estimation.” left out
Samples were diluted 5× in cell lysis buffer and total protein concentration was determined in 96-well using Bradford Protein Assay following manufacturer's instructions. […]
as §4

pIC50: −log10 of the molar value.

T1 sequence (P29597 whole entry): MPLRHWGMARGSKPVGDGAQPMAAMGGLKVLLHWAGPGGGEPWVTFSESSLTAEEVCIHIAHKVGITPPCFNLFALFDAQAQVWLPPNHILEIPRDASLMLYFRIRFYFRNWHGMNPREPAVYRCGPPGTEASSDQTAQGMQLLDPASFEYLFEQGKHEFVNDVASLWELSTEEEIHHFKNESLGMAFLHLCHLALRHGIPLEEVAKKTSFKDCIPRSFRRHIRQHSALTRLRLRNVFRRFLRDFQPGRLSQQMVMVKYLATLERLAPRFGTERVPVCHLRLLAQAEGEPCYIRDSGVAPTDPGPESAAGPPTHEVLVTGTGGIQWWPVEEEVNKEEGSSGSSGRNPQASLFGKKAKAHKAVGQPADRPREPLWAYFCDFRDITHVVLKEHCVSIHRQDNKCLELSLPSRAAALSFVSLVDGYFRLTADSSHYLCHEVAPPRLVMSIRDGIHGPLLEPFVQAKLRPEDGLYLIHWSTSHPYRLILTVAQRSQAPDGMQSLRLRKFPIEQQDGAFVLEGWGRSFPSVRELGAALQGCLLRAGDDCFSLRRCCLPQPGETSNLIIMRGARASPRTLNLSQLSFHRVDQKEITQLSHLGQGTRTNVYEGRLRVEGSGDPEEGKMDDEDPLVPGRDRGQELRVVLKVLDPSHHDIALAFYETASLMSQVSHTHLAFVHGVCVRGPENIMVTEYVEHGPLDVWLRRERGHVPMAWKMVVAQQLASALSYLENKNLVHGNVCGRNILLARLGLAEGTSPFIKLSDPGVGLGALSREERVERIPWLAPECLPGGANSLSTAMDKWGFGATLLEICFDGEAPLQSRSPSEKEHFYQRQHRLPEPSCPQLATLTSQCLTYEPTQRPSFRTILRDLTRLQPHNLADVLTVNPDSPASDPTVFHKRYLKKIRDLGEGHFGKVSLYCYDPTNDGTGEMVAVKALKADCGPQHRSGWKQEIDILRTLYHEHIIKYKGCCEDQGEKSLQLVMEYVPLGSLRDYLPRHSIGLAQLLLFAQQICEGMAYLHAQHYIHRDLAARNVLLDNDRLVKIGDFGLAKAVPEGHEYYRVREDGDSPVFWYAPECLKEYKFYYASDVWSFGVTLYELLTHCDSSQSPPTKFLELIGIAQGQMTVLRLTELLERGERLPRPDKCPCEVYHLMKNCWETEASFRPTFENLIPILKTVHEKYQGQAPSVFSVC
T3 sequence (P23458 875-1153 limits assumed): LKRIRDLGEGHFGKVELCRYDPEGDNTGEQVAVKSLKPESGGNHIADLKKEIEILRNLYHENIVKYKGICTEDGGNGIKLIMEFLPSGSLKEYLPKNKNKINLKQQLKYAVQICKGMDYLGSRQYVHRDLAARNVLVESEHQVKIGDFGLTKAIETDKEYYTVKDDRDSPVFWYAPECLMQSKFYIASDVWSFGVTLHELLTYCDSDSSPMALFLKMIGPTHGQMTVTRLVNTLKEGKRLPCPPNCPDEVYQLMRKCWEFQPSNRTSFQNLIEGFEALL

For `O=C(Nc1cc2c(cn1)c(=O)[nH]n2-c1ccccc1)C1CC1` [Compound I-1, N-(3-oxo-1-phenyl-2,3-dihydro-1H-pyrazolo[4,3-c]pyridin-6-yl)cyclopropanecarboxamide], the pIC50 on TYK2 [1] was more than 5.00; at TYK2 [2], more than 5.00; on JAK3-JH1 it was 4.52 to 5.00; in the assay with IFN-γ-pSTAT1, less than 4.05; against JAK1-JH1, 4.05 to 4.52; against TYK2-JH1, 4.05 to 4.52. This compound gave a pIC50 at JAK2-JH1 of 4.05 to 4.52. Also, the IC50 in the assay with IFN-γ was 30000 to 90000 nM; in the assay on IL-2, more than 90000 nM.
`Cc1cc(Nc2cc3c(cn2)c(=O)[nH]n3-c2ccccc2)nc(C)n1` [Compound I-3, 6-((2,6-dimethylpyrimidin-4-yl)amino)-1-phenyl-1,2-dihydro-3H-pyrazolo[4,3-c]pyridin-3-one]: the pIC50 at TYK2 [1] is more than 5.00; at TYK2 [2], more than 5.00; at JAK3-JH1, more than 5.00; with IFN-γ-pSTAT1, less than 4.05; on JAK1-JH1, less than 4.05; against TYK2-JH1, 4.52 to 5.00. In addition, the pIC50 was less than 4.05 in the assay on IL-2-pSTAT5 and more than 5.00 against JAK2-JH1. In addition, the figures for the IC50 in the assay on IFN-γ and with IL-2 were 10000 to 30000 nM and 30000 to 90000 nM, respectively.
On to `COc1cccc(-n2[nH]c(=O)c3cnc(Nc4cc(C)nc(C)n4)cc32)c1` [Compound I-17, 6-((2,6-dimethylpyrimidin-4-yl)amino)-1-(3-methoxyphenyl)-1,2-dihydro-3H-pyrazolo[4,3-c]pyridin-3-one], for which the pIC50 is more than 5.00 on TYK2 [1]; more than 5.00 at TYK2 [2]; 4.52 to 5.00 at JAK3-JH1; less than 4.05 in the assay with IFN-γ-pSTAT1; less than 4.05 on JAK1-JH1; 4.05 to 4.52 at TYK2-JH1. For the same compound, the pIC50 in the assay with IL-2-pSTAT5 is 4.05 to 4.52; on JAK2-JH1, 4.52 to 5.00. For the same compound, the IC50 is 30000 to 90000 nM in the assay on IFN-γ and more than 90000 nM in the assay on IL-2.
Regarding `Cc1cc(Nc2cc3c(cn2)c(=O)[nH]n3-c2ccc(OCC(F)(F)F)cc2)nc(C)n1` [Compound I-73, 6-((2,6-dimethylpyrimidin-4-yl)amino)-1-(4-(2,2,2-trifluoroethoxy)phenyl)-1,2-dihydro-3H-pyrazolo[4,3-c]pyridin-3-one], the pIC50 at TYK2 [1] is more than 5.00; on TYK2 [2] it was more than 5.00; on JAK3-JH1 it was less than 4.05; at JAK1-JH1, less than 4.05; against TYK2-JH1, less than 4.05; against JAK2-JH1, less than 4.05. Also, the IC50 in the assay with IFN-γ and in the assay on IL-2 was more than 90000 nM in each case.
With `N#Cc1ccc(-n2[nH]c(=O)c3cnc(Nc4ccc(F)cn4)cc32)cc1Cl` [Compound I-88, 2-chloro-4-(6-((5-fluoropyridin-2-yl)amino)-3-oxo-2,3-dihydro-1H-pyrazolo[4,3-c]pyridin-1-yl)benzonitrile], the pIC50 is more than 5.00 at TYK2 [1]; more than 5.00 on TYK2 [2]; less than 4.05 against JAK3-JH1; less than 4.05 against JAK1-JH1; less than 4.05 against TYK2-JH1; less than 4.05 against JAK2-JH1. In addition, the IC50 in the assay on IFN-γ and in the assay on IL-2 was more than 90000 nM throughout.
In the case of `Cc1cc(Nc2cc3c(cn2)c(=O)[nH]n3-c2ccc(OC(F)(F)F)c(F)c2)nc(C)n1` [Compound I-94, 6-((2,6-dimethylpyrimidin-4-yl)amino)-1-(3-fluoro-4-(trifluoromethoxy)phenyl)-1,2-dihydro-3H-pyrazolo[4,3-c]pyridin-3-one], the pIC50 at TYK2 [1] was more than 5.00; on TYK2 [2], more than 5.00; on JAK3-JH1 it was less than 4.05; against JAK1-JH1 it was less than 4.05; against TYK2-JH1, less than 4.05; against JAK2-JH1 it was less than 4.05. Further, the IC50 in the assay on IFN-γ and with IL-2 was more than 90000 nM in each case.
As to `O=c1[nH]n(-c2ccc(OC(F)(F)F)c(F)c2)c2cc(Nc3ccc(F)cn3)ncc12` [Compound I-95, 1-(3-fluoro-4-(trifluoromethoxy)phenyl)-6-((5-fluoropyridin-2-yl)amino)-1,2-dihydro-3H-pyrazolo[4,3-c]pyridin-3-one], the pIC50 is more than 5.00 on TYK2 [1]; more than 5.00 at TYK2 [2]; less than 4.05 on JAK3-JH1; less than 4.05 against JAK1-JH1; less than 4.05 against TYK2-JH1; less than 4.05 against JAK2-JH1. Also, the IC50 with IFN-γ and with IL-2 was more than 90000 nM each time.

The record behind these values is patent US12668594B2, “TYK2 inhibitors and uses thereof” (Sudo Biosciences Limited, priority 2020, dated 2026).
